{"source": "patent US20140228299A1", "about": "“PROPHYLACTIC AND THERAPEUTIC AGENT FOR NEUROLOGICAL DISEASES USING LIPOPROTEINS AND PROPHYLACTIC AND THERAPEUTIC METHOD FOR NEUROLOGICAL DISEASES” (National University Corporation Tokyo Medical and Dental …, priority 2011, published 2014)", "test_system": "intracellular Ca2+ (LRP1 / NMDA receptor) in RGC", "test": "Intracellular Ca2+ increase in RGC after glutamate+glycine (Fluo-8 fluorescence)", "format": "cell-based, rat", "conditions": "E-LP 100 ng protein/mL, 15 minutes before 300 μM glutamate+10 μM glycine", "method": "The inflow of calcium into RGC was confirmed in the manner as described below. Specifically, RGC was incubated on a microdish at least for 14 days, followed by incubation at 37° C. for 30 minutes using 3 μM Fluo-8 acetoxymethyl ester (AAT Bioquest, Sunnyvale, Calif.). The resulting cells were washed twice with 500 μl of the above HBSS, and 300 μM glutamate and 10 μM glycine were poured. The fluorescence images were taken at every 500 msec by ORCA-R2 digital camera (Hamamatsu Photonics, Hamamatsu, Japan) and analyzed by MetaFluor fluorescence ratio imaging software (Molecular Devices, Sunnyvale, Calif.).\nRGC was labeled with Fluo-8 acetoxymethyl ester for 30 minutes, and Glu (300 μM glutamate+10 μM glycine) was added thereto. Fluorescent ratio images were as represented by colors indicated by the color index shown at the lower side of FIG. 12A. The color was represented as Ratio 0 and Ratio 2 corresponding to the base fluorescent intensity (Ratio 1) before Glu stimulation. The panels on the left and right sides indicate Glu and Glu+E-LP, respectively. […] The scale bar is 80 μm.\nFIGS. 12B and C show variations of fFuo-8 fluorescence represented by ΔF/F0. In the figures, F0 indicates the base fluorescence intensity before Glu stimulation. * and **: p<0.005 and p<0.0001 (Glu vs. Glu+E-LP). […]", "data": [{"substance": "E-LP: reconstituted lipoprotein of 1-palmitoyl-2-oleyl-glycerophosphocoline, cholesterol and recombinant human apolipoprotein E, molar ratio 100:10:1 or 100:0:1", "values": [{"measurement": "increase in intracellular Ca2+", "value": "inhibits"}]}]}
